{
  "source": "PubChem BioAssay (NCI)",
  "experiment_in_all_cases": "DTP human tumour cell line panel, 48 h",
  "key": {"CAKI-1 renal": {"test_system": "CAKI-1 renal"}, "T-47D breast": {"test_system": "T-47D breast"}, "MALME-3M melanoma": {"test_system": "MALME-3M melanoma"}, "MOLT-4 leukemia": {"test_system": "MOLT-4 leukemia"}, "NCI-H226 lung": {"test_system": "NCI-H226 lung"}, "K-562 leukemia": {"test_system": "K-562 leukemia"}, "SW-620 colon": {"test_system": "SW-620 colon"}, "SN12C renal": {"test_system": "SN12C renal"}, "HOP-62 NSCLC": {"test_system": "HOP-62 NSCLC"}, "SNB-19 CNS": {"test_system": "SNB-19 CNS"}, "DU-145 prostate": {"test_system": "DU-145 prostate"}, "CCRF-CEM leukemia": {"test_system": "CCRF-CEM leukemia"}, "LOX IMVI melanoma": {"test_system": "LOX IMVI melanoma"}, "OVCAR-3 ovarian": {"test_system": "OVCAR-3 ovarian"}, "NCI/ADR-RES ovarian": {"test_system": "NCI/ADR-RES ovarian"}, "IGROV1 ovarian": {"test_system": "IGROV1 ovarian"}, "KM12 colon": {"test_system": "KM12 colon"}, "SF-539 CNS": {"test_system": "SF-539 CNS"}, "MDA-MB-435": {"test_system": "MDA-MB-435"}, "A498 renal": {"test_system": "A498 renal"}, "SF-295 CNS": {"test_system": "SF-295 CNS"}, "TK-10 renal": {"test_system": "TK-10 renal"}, "M14 melanoma": {"test_system": "M14 melanoma"}, "HCT-116 colon": {"test_system": "HCT-116 colon"}, "HL-60(TB) leukemia": {"test_system": "HL-60(TB) leukemia"}, "SNB-75 CNS": {"test_system": "SNB-75 CNS"}, "OVCAR-4 ovarian": {"test_system": "OVCAR-4 ovarian"}, "U251 CNS": {"test_system": "U251 CNS"}, "NCI-H460 lung": {"test_system": "NCI-H460 lung"}, "NCI-H23 lung": {"test_system": "NCI-H23 lung"}, "SK-MEL-28 melanoma": {"test_system": "SK-MEL-28 melanoma"}, "COLO 205 colon": {"test_system": "COLO 205 colon"}, "SK-OV-3 ovarian": {"test_system": "SK-OV-3 ovarian"}, "PC-3 prostate": {"test_system": "PC-3 prostate"}, "HCC-2998 colon": {"test_system": "HCC-2998 colon"}, "RPMI-8226 leukemia": {"test_system": "RPMI-8226 leukemia"}, "SF-268 CNS": {"test_system": "SF-268 CNS"}, "MCF7 breast": {"test_system": "MCF7 breast"}, "A549 NSCLC": {"test_system": "A549 NSCLC"}, "OVCAR-5 ovarian": {"test_system": "OVCAR-5 ovarian"}, "UACC-257 melanoma": {"test_system": "UACC-257 melanoma"}, "MDA-MB-231 breast": {"test_system": "MDA-MB-231 breast"}, "HT29 colon": {"test_system": "HT29 colon"}, "UACC-62 melanoma": {"test_system": "UACC-62 melanoma"}, "HCT-15 colon": {"test_system": "HCT-15 colon"}, "RXF 393 renal": {"test_system": "RXF 393 renal"}, "SR leukemia": {"test_system": "SR leukemia"}, "MDA-N": {"test_system": "MDA-N"}, "UO-31 renal": {"test_system": "UO-31 renal"}, "ACHN renal": {"test_system": "ACHN renal"}, "OVCAR-8 ovarian": {"test_system": "OVCAR-8 ovarian"}, "HS 578T breast": {"test_system": "HS 578T breast"}, "NCI-H522 lung": {"test_system": "NCI-H522 lung"}, "BT-549 breast": {"test_system": "BT-549 breast"}, "SK-MEL-5 melanoma": {"test_system": "SK-MEL-5 melanoma"}, "SK-MEL-2 melanoma": {"test_system": "SK-MEL-2 melanoma"}, "786-0 renal": {"test_system": "786-0 renal"}},
  "note": "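Values below derive from 48-hour exposures of cells grown in 96-well plates, with endpoints linearly interpolated between the two concentrations bracketing the appropriate inhibition level. TGI is the concentration that stops growth completely.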",
  "data": [
    {"smiles": "S=c1[nH]nc(C23CC4CC(CC(C4)C2)C3)n1-c1ccc(Cl)cc1", "values": [
      {"measurement": "TGI", "setting": "CAKI-1 renal", "result": 11.5, "unit": "µM"},
      {"measurement": "TGI", "setting": "T-47D breast", "result": 52, "unit": "µM"},
      {"measurement": "TGI", "setting": "MALME-3M melanoma", "result": 63.3, "unit": "µM"},
      {"measurement": "TGI", "setting": "MOLT-4 leukemia", "result": 49.4, "unit": "µM"},
      {"measurement": "TGI", "setting": "NCI-H226 lung", "result": 55.8, "unit": "µM"},
      {"measurement": "TGI", "setting": "K-562 leukemia", "result": "> 100", "unit": "µM"},
      {"measurement": "TGI", "setting": "SW-620 colon", "result": "> 100", "unit": "µM"},
      {"measurement": "TGI", "setting": "SN12C renal", "result": 39.9, "unit": "µM"},
      {"measurement": "TGI", "setting": "HOP-62 NSCLC", "result": 32.7, "unit": "µM"},
      {"measurement": "TGI", "setting": "SNB-19 CNS", "result": "> 100", "unit": "µM"},
      {"measurement": "TGI", "setting": "DU-145 prostate", "result": 95.9, "unit": "µM"},
      {"measurement": "TGI", "setting": "CCRF-CEM leukemia", "result": 19.8, "unit": "µM"},
      {"measurement": "TGI", "setting": "LOX IMVI melanoma", "result": 17, "unit": "µM"},
      {"measurement": "TGI", "setting": "OVCAR-3 ovarian", "result": 30.4, "unit": "µM"},
      {"measurement": "TGI", "setting": "NCI/ADR-RES ovarian", "result": 59.8, "unit": "µM"},
      {"measurement": "TGI", "setting": "IGROV1 ovarian", "result": 42.9, "unit": "µM"},
      {"measurement": "TGI", "setting": "KM12 colon", "result": 52.9, "unit": "µM"},
      {"measurement": "TGI", "setting": "SF-539 CNS", "result": 38, "unit": "µM"},
      {"measurement": "TGI", "setting": "MDA-MB-435", "result": 55.9, "unit": "µM"},
      {"measurement": "TGI", "setting": "A498 renal", "result": 42.6, "unit": "µM"},
      {"measurement": "TGI", "setting": "SF-295 CNS", "result": 58.6, "unit": "µM"},
      {"measurement": "TGI", "setting": "TK-10 renal", "result": 72.4, "unit": "µM"},
      {"measurement": "TGI", "setting": "M14 melanoma", "result": 41.4, "unit": "µM"},
      {"measurement": "TGI", "setting": "HCT-116 colon", "result": 23.8, "unit": "µM"},
      {"measurement": "TGI", "setting": "HL-60(TB) leukemia", "result": 8.41, "unit": "µM"},
      {"measurement": "TGI", "setting": "SNB-75 CNS", "result": 72.1, "unit": "µM"},
      {"measurement": "TGI", "setting": "OVCAR-4 ovarian", "result": "> 100", "unit": "µM"},
      {"measurement": "TGI", "setting": "U251 CNS", "result": 31.7, "unit": "µM"},
      {"measurement": "TGI", "setting": "NCI-H460 lung", "result": 56, "unit": "µM"},
      {"measurement": "TGI", "setting": "NCI-H23 lung", "result": "> 100", "unit": "µM"},
      {"measurement": "TGI", "setting": "SK-MEL-28 melanoma", "result": 33.4, "unit": "µM"},
      {"measurement": "TGI", "setting": "COLO 205 colon", "result": 46, "unit": "µM"},
      {"measurement": "TGI", "setting": "SK-OV-3 ovarian", "result": 73.9, "unit": "µM"},
      {"measurement": "TGI", "setting": "PC-3 prostate", "result": 93.7, "unit": "µM"},
      {"measurement": "TGI", "setting": "HCC-2998 colon", "result": 32.9, "unit": "µM"},
      {"measurement": "TGI", "setting": "RPMI-8226 leukemia", "result": 66.9, "unit": "µM"},
      {"measurement": "TGI", "setting": "SF-268 CNS", "result": 50.1, "unit": "µM"},
      {"measurement": "TGI", "setting": "MCF7 breast", "result": 45.7, "unit": "µM"},
      {"measurement": "TGI", "setting": "A549 NSCLC", "result": 72.2, "unit": "µM"},
      {"measurement": "TGI", "setting": "OVCAR-5 ovarian", "result": "> 100", "unit": "µM"},
      {"measurement": "TGI", "setting": "UACC-257 melanoma", "result": 71.4, "unit": "µM"},
      {"measurement": "TGI", "setting": "MDA-MB-231 breast", "result": 56.4, "unit": "µM"},
      {"measurement": "TGI", "setting": "HT29 colon", "result": 36.8, "unit": "µM"},
      {"measurement": "TGI", "setting": "UACC-62 melanoma", "result": 25.3, "unit": "µM"},
      {"measurement": "TGI", "setting": "HCT-15 colon", "result": 23.3, "unit": "µM"},
      {"measurement": "TGI", "setting": "RXF 393 renal", "result": 38.1, "unit": "µM"},
      {"measurement": "TGI", "setting": "SR leukemia", "result": 16.4, "unit": "µM"},
      {"measurement": "TGI", "setting": "MDA-N", "result": 41.1, "unit": "µM"},
      {"measurement": "TGI", "setting": "UO-31 renal", "result": 44.7, "unit": "µM"},
      {"measurement": "TGI", "setting": "ACHN renal", "result": 73.5, "unit": "µM"},
      {"measurement": "TGI", "setting": "OVCAR-8 ovarian", "result": "> 100", "unit": "µM"},
      {"measurement": "TGI", "setting": "HS 578T breast", "result": 52.8, "unit": "µM"},
      {"measurement": "TGI", "setting": "NCI-H522 lung", "result": 57.9, "unit": "µM"},
      {"measurement": "TGI", "setting": "BT-549 breast", "result": 29.9, "unit": "µM"},
      {"measurement": "TGI", "setting": "SK-MEL-5 melanoma", "result": 14.4, "unit": "µM"},
      {"measurement": "TGI", "setting": "SK-MEL-2 melanoma", "result": 27.9, "unit": "µM"},
      {"measurement": "TGI", "setting": "786-0 renal", "result": "> 100", "unit": "µM"}
    ]}
  ]
}
